# Reference: US12214076B2, “Drug delivery vehicles for atherosclerosis nanomedicine” (Northwestern University, priority 2019, dated 2025)
# Peptide text beside a SMILES is read from it. * marks the point of attachment. Palmitoyl = CCCCCCCCCCCCCCCC(=O)*
# How the values were obtained:
# [1] = test system: atherosclerotic LDLR KO mice; experiment: In vivo proof of concept: PA nanofiber localization in aortic root; design: species or system mouse; settings: 24 h after intravenous injection, high fat diet 14 weeks, 6 mg kg-1 PA
# Method: Mouse Model of Atherosclerosis and In Vivo Proof of Concept: LDLR-KO mice were fed a high fat “Western” diet (Teklad TD.88137) starting at 4 weeks of age. This diet consisted of 20% fat, 0.2% cholesterol, and 34% high sucrose. LDLR-KO mice fed this diet typically develop severe hypercholesterolemia (>800 mg/dL) and hypertriglyceridemia (>300 mg/dL) after only 2 weeks, and by 12 weeks on the high fat diet, atherosclerotic lesions are detected in the aortic root and aortic arch. After 14 weeks on the high fat diet, mice received intravenous injections of PA nanofibers dissolved in PBS (dorsal penile vein in males) under sterile conditions. Mice were briefly anesthetized for injection with inhaled isoflurane. After injection, mice were monitored and allowed to recover from anesthesia in a heated oxygen chamber. […] PA fluorescence was assessed with the HE CY3 filter (Zeiss filter #43) using excitation and emission wavelengths of 550-575 nm and 605-670 nm, respectively. Nuclear staining was performed with DAPI (4′,6-Diamidino-2-Phenylindole, Dilactate, ThermoFisher, Chicago, IL), and assessed with the DAPI filter (Zeiss filter #49) using excitation and emission wavelengths of 365-395 and 445-450 nm, respectively. Tissue autofluorescence was assessed with the green fluorescent protein filter (Zeiss filter #38) using excitation and emission wavelengths of 470-495 and 525-550 nm, respectively. […]
# [2] = TEM characterization of PA nanofibers for diameter and length (Example 3); assay type: physicochemical; settings: 30 measurements from three images
# Method: Samples at 1 mM in PBS were prepared for TEM by plating on copper supports covered with thin carbon foil 400-mesh that were treated with glow discharge. […] Due to the overlapping fibers, automated tools including FiberApp could not be used to analyze the nanofibers. Instead, the TEM images were analyzed manually for nanofiber diameter and length using ImageJ software. Cryogenic TEM of samples was also performed using a JEOL 1230 at 100 kV accelerating voltage and Gatan 831 CCD camera. […] Samples were prepared at 1 mM in PBS blotted once for 3 seconds before plunging into liquid ethane using a Vitrobot Mark III (FEI) vitrification robot.
smiles,measurement,setting,value
CCCCCCCCCCCCCCCC(=O)N[C@H](C(=O)N[C@H](C(=O)N[C@@H](C)C(=O)N[C@@H](C)C(=O)N[C@@H](CCC(=O)O)C(=O)N[C@@H](CCC(=O)O)C(=O)NCC(=O)N[C@@H](CC(=O)O)C(=O)N[C@@H](Cc1c[nH]c2ccccc12)C(=O)N[C@@H](Cc1ccccc1)C(=O)N[C@@H](CCCCN)C(=O)N[C@@H](C)C(=O)N[C@@H](Cc1ccccc1)C(=O)N[C@@H](Cc1ccc(O)cc1)C(=O)N[C@@H](CC(=O)O)C(=O)N[C@@H](CCCCN)C(=O)N[C@H](C(=O)N[C@@H](C)C(=O)N[C@@H](CCC(=O)O)C(=O)N[C@@H](CCCCN)C(=O)N[C@@H](Cc1ccccc1)C(=O)N[C@@H](CCCCN)C(=O)N[C@@H](CCC(=O)O)C(=O)N[C@@H](C)C(=O)N[C@@H](Cc1ccccc1)C(N)=O)C(C)C)C(C)C)C(C)C [ApoA1 PA] (Palmitoyl-VVAAEEGDWFKAFYDKVAEKFKEAF-NH2),localization of nanofibers to areas of atherosclerotic plaque in the aortic root,[1],localization of the nanofibers to areas of atherosclerotic plaque
same,Diameter (nm) Average,[2],9.6 nm
same,Diameter (nm) Median,[2],9.5 nm
same,Length (nm) Average,[2],626.9 nm
same,Length (nm) Median,[2],615.9 nm
same,Diameter (nm) Average,[2]; listed as ApoA1,9.6±1.7 nm
same,Length (nm) Median,[2]; listed as ApoA1,616 nm
